According to US7754443B2, “Serum replacement for thyroid hormone-responsive cell culture” (University of Victoria Innovation and Development …, priority 2005, dated 2010):

Experiments:
[1] = tested on: TH receptor β (TRβ) gene expression; experiment: TRβ transcript levels by RT-QPCR in XTC-2 cells cultured in serum-containing medium; format: cell-based, Xenopus laevis
Procedure: The indicated cell types were plated at a density of 2×10^4 cells/cm^2 and cultured in the presence of medium containing either 10% charcoal stripped fetal calf serum (stripped) or Rana tadpole serum (RTS). […] All values were normalized to an invariant L8 ribosomal protein transcript. A) Relative expression levels of the control cells. B) Fold change of the TRβ transcript levels relative to the control, uninduced cells in accordance with an embodiment. […] XTC cells were plated in triplicate at a density of 2×10^4 cells/cm^2 and cultured in the presence of medium containing either 10% charcoal stripped fetal calf serum (CS) or Rana tadpole serum from different premetamorphic (VI, XII) or prometamorphic (XV, XVIII) stages (Taylor and Kollros, 1946). […] All values were normalized to an invariant L8 ribosomal protein transcript. The relative expression levels are indicated with vehicle control (white bars) and T3-exposed (black bars) cells in accordance with an embodiment. FIG. 3 is evidence that serum from other species is suitable for use in thyroid hormone induction experiments. XTC cells were plated at a density of 2×10^4 cells/cm^2 and cultured in the presence of medium containing either 10% charcoal stripped fetal calf serum (stripped), serum from salmon Parr (salmon), or neotenic salamanders (salamander). […] All values were normalized to an invariant L8 ribosomal protein transcript. […]

[2] = tested on: TH receptor β (TRβ) gene expression; experiment: TRβ transcript levels by RT-QPCR in XLA cells cultured in serum-containing medium; format: cell-based, Xenopus laevis; details: 10 nM T3, 2 days, relative to uninduced control
Procedure: The indicated cell types were plated at a density of 2×10^4 cells/cm^2 and cultured in the presence of medium containing either 10% charcoal stripped fetal calf serum (stripped) or Rana tadpole serum (RTS). […] All values were normalized to an invariant L8 ribosomal protein transcript. A) Relative expression levels of the control cells. B) Fold change of the TRβ transcript levels relative to the control, uninduced cells in accordance with an embodiment. […] The expression of TRβ and GH gene transcripts was analyzed using a MX4000 real-time quantitative polymerase chain reaction system (Stratagene, La Jolla, Calif., USA) as described previously (Crump, Werry et al. 2002) using gene specific primers (for TRβ: UP primer 5'-[NT]; DOWN primer 5'-[NT]; for GH: UP primer 5'-[NT]; DOWN primer 5'-[NT] The annealing temperature was 55° C. A standard curve for each primer pair was generated using the appropriate quantified plasmid DNA containing the target gene sequence. Quadruplicate reactions were performed for each sample and data were averaged and normalized to the expression of the control gene encoding the ribosomal protein L8. […] Total RNA was isolated from these cells and analyzed for the levels of the TRβ gene by reverse transcription quantitative real time polymerase chain reaction (RT-QPCR). […]

rat pituitary GH3 cells = experiment: TH-induced proliferation of GH3 cells, hemocytometer cell count; format: cell-based; details: 10 nM T3, all three sera, relative to vehicle controls
Procedure: FIG. 5 is evidence that serum from other species is suitable for use in thyroid hormone induction experiments with mammalian cells. 3.5×10^4 rat pituitary GH3 cells were plated in duplicate at a density of 2×10^4 cells/cm^2 and cultured in the presence of medium containing either 10% charcoal stripped fetal calf serum (stripped), serum from salmon parr (salmon), or Rana catesbeiana tadpoles (RTS). After 2 days, 10 nM T3 or vehicle control was added and the cells were counted 5 days later after trypsinization on a hemocytometer. The total cell numbers are indicated with vehicle control (white bars) and T3-exposed (black bars) cells in accordance with an embodiment.
Two frog cell lines, XTC-2 cells (Machuca and Tata 1992) and XLA cells (Kanamori and Brown 1993) were obtained from J. Tata and D. Brown, respectively and grown in 70% Liebovitz medium supplemented with 10% bovine growth serum, 100 µg/ml gentamycin sulfate and 10 mM Hepes, pH 7.5 (GIBCO/Invitrogen, Grand Island, N.Y.). These cells were grown at 25° C. in air. The rat pituitary tumor GH3 cell line was obtained from R. T. Zoeller and maintained in Kaighn's modification of Ham's F 12 medium with 2 mM glutamine, 1.5 g/L sodium bicarbonate, 10% fetal bovine serum, 1,000 U/ml penicillin, and 1 mg/ml streptomycin at 37° C. in 5% CO2. […]

[3] = tested on: growth hormone (GH) mRNA transcript; experiment: GH transcript levels by RT-QPCR in GH3 cells cultured in serum-containing medium; format: cell-based, rat; details: 10 nM T3, 2 days, relative to uninduced control
Procedure: The indicated cell types were plated at a density of 2×10^4 cells/cm^2 and cultured in the presence of medium containing either 10% charcoal stripped fetal calf serum (stripped) or Rana tadpole serum (RTS). […] All values were normalized to an invariant L8 ribosomal protein transcript. A) Relative expression levels of the control cells. B) Fold change of the GH transcript levels relative to the control, uninduced cells in accordance with an embodiment. […] The expression of TRβ and GH gene transcripts was analyzed using a MX4000 real-time quantitative polymerase chain reaction system (Stratagene, La Jolla, Calif., USA) as described previously (Crump, Werry et al. 2002) using gene specific primers (for TRβ: UP primer 5'-[NT]; DOWN primer 5'-[NT]; for GH: UP primer 5'-[NT]; DOWN primer 5'-[NT] The annealing temperature was 55° C. A standard curve for each primer pair was generated using the appropriate quantified plasmid DNA containing the target gene sequence. Quadruplicate reactions were performed for each sample and data were averaged and normalized to the expression of the control gene encoding the ribosomal protein L8.

SMILES: N[C@@H](Cc1cc(I)c(Oc2ccc(O)c(I)c2)c(I)c1)C(=O)O [T3, 3,5,3′-triiodothyronine]
- TRβ levels after addition of T3 ([1]; XTC cells, 10 nM T3, in charcoal stripped serum or RTS of stages VI, XII, XV, XVIII (all cases)): robust elevation
- TRβ mRNA levels on exposure to T3 ([1]; XTC-2 cells, 10 nM T3, 2 days, relative to uninduced control): increase
- TRβ mRNA levels on exposure to T3 [2]: increase
- GH3 proliferation on exposure to T3 (rat pituitary GH3 cells): increased proliferation
- GH mRNA levels on exposure to T3 [3]: increase
